Results on 45 molecules are retold here after patent US9732087B2, “Diamino-pyridine, pyrimidine, and pyridazine modulators of the histamine H4 receptor” (JANSSEN PHARMACEUTICA NV, priority 2008, dated 2017).

Bounds are passed on as bounds.

The target of the first assay is human H4 receptor (Homo sapiens (Human), UniProt Q9H3N8). Put plainly: Binding assay on recombinant human histamine H4 receptor ([3H]histamine competition, SK-N-MC cell membranes). To be noted: membranes harvested with 96 well Brandel system; [3H]histamine 10 nM; average of results; read-out: Brandel Ki. The method, boiled down: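 Scintillation counting of filter-bound [3H]histamine after rapid harvesting on 0.5% PEI-treated GF/C filters with ice-cold Tris/EDTA washes. Receptor source: 30,000 g membrane pellets of SK-N-MC cells stably or transiently expressing human H4. Values shown as '>' are the top concentration tested.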
Chain of human H4 receptor (Q9H3N8 whole entry): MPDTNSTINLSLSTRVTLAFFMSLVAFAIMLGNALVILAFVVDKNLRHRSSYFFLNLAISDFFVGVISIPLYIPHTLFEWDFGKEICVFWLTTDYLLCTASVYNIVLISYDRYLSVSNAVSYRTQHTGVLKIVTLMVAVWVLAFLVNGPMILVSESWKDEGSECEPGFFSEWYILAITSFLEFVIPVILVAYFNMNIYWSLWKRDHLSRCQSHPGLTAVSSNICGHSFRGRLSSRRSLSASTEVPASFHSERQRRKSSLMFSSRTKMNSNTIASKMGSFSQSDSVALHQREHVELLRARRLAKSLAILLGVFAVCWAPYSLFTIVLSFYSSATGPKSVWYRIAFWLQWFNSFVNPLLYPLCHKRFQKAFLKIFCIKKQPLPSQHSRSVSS
Regarding `c1cc(N2CCNCC2)nc(NCC2CC2)n1` [Example 66, Cyclopropylmethyl-(4-piperazin-1-yl-pyrimidin-2-yl)-amine], the inhibitory constant (Ki) (commonly a measure of affinity in units of concentration, obtained from inhibition or displacement) turned out to be 12.2 nM.

Still in this assay, the particulars now being: membranes harvested with cell harvester; [3H]histamine 10 nM; average of results; read-out: Cell Harvester Ki.
`CC(C)CNc1cc(N2CC(N)C2)cnn1` [Example 328, 5-(3-Aminoazetidin-1-yl)-N-(2-methylpropyl)pyridazin-3-amine]: the inhibition constant (Ki) worked out at 1680 nM.

For the molecule `CNC1CN(c2ccnc(NCCc3ccccc3)c2)C1` [Example 294, 4-[3-(Methylamino)azetidin-1-yl]-N-(2-phenylethyl)pyridin-2-amine], the Ki worked out at 103 nM.

`N[C@H]1CCN(c2ccnc(NCc3ccc(F)cc3)n2)C1` [Example 199, 4-[(3S)-3-Aminopyrrolidin-1-yl]-N-(4-fluorobenzyl)pyrimidin-2-amine]: the Ki was 2300 nM.

On to `Cc1ccc(CNc2cc(N3CCNCC3)cnn2)cc1` [Example 344, N-(4-Methylbenzyl)-5-piperazin-1-ylpyridazin-3-amine], for which the Ki is above 10000 nM.

As for `CNC1CN(c2ccnc(NC3CC4CCC3C4)n2)C1` (stereo not shown) [Example 147, N-Bicyclo[2.2.1]hept-2-yl-4-[3-(methylamino)azetidin-1-yl]pyrimidin-2-amine], the Ki is 6.66 nM.

Turning to `CNC1CN(c2cnnc(NCC3CCCC3)c2)C1` [Example 370, N-(Cyclopentylmethyl)-5-[3-(methylamino)azetidin-1-yl]pyridazin-3-amine], the inhibition constant Ki worked out at 224 nM.

In the case of `CN[C@@H]1CCN(c2cnnc(NC3CC3)c2)C1` [Example 377, N-Cyclopropyl-5-[(3R)-3-(methylamino)pyrrolidin-1-yl]pyridazin-3-amine], the Ki is 699 nM.

Regarding `CN[C@@H]1CCN(c2ccnc(NC3CCOCC3)c2)C1` [Example 222, 4-[(3R)-3-(Methylamino)pyrrolidin-1-yl]-N-(tetrahydro-2H-pyran-4-yl)pyridin-2-amine], the Ki was 67.3 nM.

As to `N[C@@H]1CCN(c2ccnc(NC3CCC3)n2)C1` [Example 28, 4-[(3R)-3-Aminopyrrolidin-1-yl]-N-cyclobutylpyrimidin-2-amine], the Ki was determined as 8.4 nM.

With `COCCNc1nccc(N2C[C@H]3CCN[C@H]3C2)n1` [Example 140, 4-[(3aR,6aR)-Hexahydropyrrolo[3,4-b]pyrrol-5(1H)-yl]-N-(2-methoxyethyl)pyrimidin-2-amine], the inhibition constant (Ki) was 135 nM.

As to `N[C@@H]1CCN(c2cnnc(NCc3ccccc3)c2)C1` [Example 340, 5-[(3R)-3-Aminopyrrolidin-1-yl]-N-benzylpyridazin-3-amine], the Ki amounted to 2030 nM.

As to `c1cc(N2CCNCC2)nc(NCC2CCCC2)n1` [Example 187, N-(Cyclopentylmethyl)-4-piperazin-1-ylpyrimidin-2-amine], the Ki turned out to be 71.5 nM.

With `CN[C@@H]1CCN(c2cnnc(NCCc3ccccc3)c2)C1` [Example 372, 5-[(3R)-3-(Methylamino)pyrrolidin-1-yl]-N-(2-phenylethyl)pyridazin-3-amine], the Ki was found to be 139 nM.

Regarding `CN[C@@H]1CCN(c2cnnc(NCc3ccc(F)cc3)c2)C1` [Example 398, N-(4-Fluorobenzyl)-5-[(3R)-3-(methylamino)pyrrolidin-1-yl]pyridazin-3-amine], the Ki turned out to be 347 nM.

For the molecule `N[C@H]1CCN(c2ccnc(NCC3CCCC3)n2)C1` [Example 149, 4-[(3S)-3-Aminopyrrolidin-1-yl]-N-(cyclopentylmethyl)pyrimidin-2-amine], the Ki turned out to be 23.8 nM.

In the case of `CC(C)(CO)CNc1nccc(N2CC3CCN[C@H]3C2)n1` (stereo in doubt) [Example 148, 3-({4-[(3aR,6aR)-Hexahydropyrrolo[3,4-b]pyrrol-5(1H)-yl]pyrimidin-2-yl}amino)-2,2-dimethylpropan-1-ol], the inhibitory constant (Ki) was 250 nM.

With `CN[C@@H]1CCN(c2ccnc(NC34CC5CC(CC(C5)C3)C4)c2)C1` [Example 218, Adamantan-1-yl-[4-(3R)-(3-methylamino-pyrrolidin-1-yl)-pyridin-2-yl]-amine], the inhibition constant (Ki) amounted to 2.62 nM.

For `CN1CCN(c2ccnc(NCc3ccccc3)n2)CC1` [Example 165, N-Benzyl-4-(4-methylpiperazin-1-yl)pyrimidin-2-amine], the Ki stood at 732 nM.

Turning to `CN1CCN(c2ccnc(NC3CCOCC3)c2)CC1` [Example 223, 4-(4-Methylpiperazin-1-yl)-N-(tetrahydro-2H-pyran-4-yl)pyridin-2-amine], the Ki was 723 nM.

In the case of `c1cc(N2CCNCC2)nc(NCC2CC2)n1` [Example 66, Cyclopropylmethyl-(4-piperazin-1-yl-pyrimidin-2-yl)-amine], the Ki was determined as 56.8 nM.

Take `N[C@@H]1CCN(c2ccnc(NCC3CCCO3)n2)C1` (stereo partly drawn) [Example 51, 4-[(R)-3-Aminopyrrolidin-1-yl]-N-(tetrahydrofuran-2-ylmethyl)pyrimidin-2-amine]: the Ki stood at 123 nM.

`CN[C@@H]1CCN(c2cnnc(NC3CCCC3)c2)C1` [Example 412, N-cyclopentyl-5-[(3R)-3-(methylamino)pyrrolidin-1-yl]pyridazin-3-amine]: the Ki amounted to 5.6 nM.

For the molecule `N[C@H]1CCN(c2ccnc(NCCc3ccccc3)c2)C1` [Example 276, 4-[(3S)-3-Aminopyrrolidin-1-yl]-N-(2-phenylethyl)pyridin-2-amine], the Ki worked out at 1640 nM.

Consider `CN[C@@H]1CCN(c2ccnc(NCC3CC3)n2)C1` [Example 77, Cyclopropylmethyl-[4-(3R)-(3-methylamino-pyrrolidin-1-yl)-pyrimidin-2-yl]-amine], for which the inhibition constant (Ki) came out at 3.3 nM.

In the case of `CN[C@H]1CCN(c2cnnc(NCC3CCCCC3)c2)C1` [Example 396, N-(Cyclohexylmethyl)-5-[(3S)-3-(methylamino)pyrrolidin-1-yl]pyridazin-3-amine], the Ki was 380 nM.

For `CN[C@@H]1CCN(c2ccnc(Nc3ccccc3)c2)C1` [Example 33, 4-[(3R)-3-(Methylamino)pyrrolidin-1-yl]-N-phenylpyridin-2-amine], the Ki was determined as 0.9 nM.

On to `CN[C@@H]1CCN(c2ccnc(N[C@H](C)c3ccccc3)n2)C1` [Example 180, 4-[(3R)-3-(Methylamino)pyrrolidin-1-yl]-N-[(1R)-1-phenylethyl]pyrimidin-2-amine], for which the Ki stood at 116 nM.

`C[C@@H](Nc1nccc(N2CC[C@@H](N)C2)n1)c1ccccc1` [Example 175, 4-[(3R)-3-Aminopyrrolidin-1-yl]-N-[(1R)-1-phenylethyl]pyrimidin-2-amine]: the inhibition constant Ki was found to be 816 nM.

As to `CC(C)CNc1cc(N2CC[C@H](N)C2)cnn1` [Example 339, 5-[(3S)-3-Aminopyrrolidin-1-yl]-N-(2-methylpropyl)pyridazin-3-amine], the inhibitory constant (Ki) was found to be 220 nM.

With `N[C@@H]1CCN(c2ccnc(NCCCC(F)(F)F)n2)C1` [Example 150, 4-[(3R)-3-Aminopyrrolidin-1-yl]-N-(4,4,4-trifluorobutyl)pyrimidin-2-amine], the Ki worked out at 29.7 nM.

Turning to `CN[C@@H]1CCN(c2ccnc(N[C@H]3C[C@H]4CC[C@]3(C)C4(C)C)c2)C1` [Example 247, 4-[(3R)-3-(Methylamino)pyrrolidin-1-yl]-N-[(1R,2S,4R)-1,7,7-trimethylbicyclo[2.2.1]hept-2-yl]pyridin-2-amine], the Ki was 1.41 nM.

Consider `COc1ccc(CNc2nccc(N3CC[C@@H](N)C3)n2)cc1` [Example 185, 4-[(3R)-3-Aminopyrrolidin-1-yl]-N-(4-methoxybenzyl)pyrimidin-2-amine], for which the Ki amounted to 1730 nM.

`CSCCNc1nccc(N2CCN(C)CC2)n1` [Example 164, 4-(4-Methylpiperazin-1-yl)-N-[2-(methylsulfanyl)ethyl]pyrimidin-2-amine]: the Ki came out at 36.2 nM.

In the case of `CCCCNc1nccc(N2CC(N)C2)n1` [Example 84, [4-(3-Amino-azetidin-1-yl)-pyrimidin-2-yl]-butyl-amine], the Ki was found to be 33.3 nM.

As to `CN[C@@H]1CCN(c2ccnc(NC3CCCCC3)n2)C1` [Example 192, N-Cyclohexyl-4-[(3R)-3-(methylamino)pyrrolidin-1-yl]pyrimidin-2-amine], the Ki is 2.42 nM.

On to `N[C@@H]1CCN(c2ccnc(NCCCO)n2)C1` [Example 154, 3-({4-[(3R)-3-Aminopyrrolidin-1-yl]pyrimidin-2-yl}amino)propan-1-ol], for which the inhibitory constant (Ki) worked out at 204 nM.

In the case of `CC(C)(C)CNc1cc(N2CC(N)C2)cnn1` [Example 323, 5-(3-Aminoazetidin-1-yl)-N-(2,2-dimethylpropyl)pyridazin-3-amine], the inhibitory constant (Ki) was above 10000 nM.

As to `COCCNc1nccc(N2CCN(C)CC2)n1` [Example 60, N-(2-Methoxyethyl)-4-(4-methylpiperazin-1-yl)pyrimidin-2-amine], the Ki came out at 342 nM.

With `COc1ccc(CNc2nccc(N3CCNCC3)n2)cc1` [Example 144, N-(4-Methoxybenzyl)-4-piperazin-1-ylpyrimidin-2-amine], the Ki amounted to 2530 nM.

Consider `c1cc(N2CCCNCC2)nc(NC2CC3CCC2C3)n1` (stereo not shown) [Example 195, N-Bicyclo[2.2.1]hept-2-yl-4-(1,4-diazepan-1-yl)pyrimidin-2-amine], for which the Ki was found to be 7.75 nM.

Regarding `N[C@@H]1CCN(c2cnnc(NCCCO)c2)C1` [Example 313, 3-({5-[(3R)-3-Aminopyrrolidin-1-yl]pyridazin-3-yl}amino)propan-1-ol], the Ki was above 10000 nM.

As to `CN1CCN(c2ccnc(NCc3ccccn3)n2)CC1` [Example 62, 4-(4-Methylpiperazin-1-yl)-N-(pyridin-2-ylmethyl)pyrimidin-2-amine], the Ki is above 10000 nM.

For the molecule `CN[C@H]1CCN(c2ccnc(NCC34CC5CC(CC(C5)C3)C4)c2)C1` [Example 251, Adamantan-1-ylmethyl-[4-(3S)-(3-methylamino-pyrrolidin-1-yl)-pyridin-2-yl]amine], the Ki was 79.4 nM.

As to `CN[C@@H]1CCN(c2cnnc(N[C@H](C)c3ccccc3)c2)C1` [Example 401, 5-[(3R)-3-(Methylamino)pyrrolidin-1-yl]-N-[(1R)-1-phenylethyl]pyridazin-3-amine], the Ki amounted to 79.3 nM.

Consider `CNC1CN(c2ccnc(NCc3ccc(F)cc3)c2)C1` [Example 295, N-(4-Fluorobenzyl)-4-[3-(methylamino)azeidin-1-yl]pyridin-2-amine], for which the Ki amounted to 163 nM.
